In patent EP0604354B1, “Antidepressant and antiparkinsonian compounds” (N[…]/S, priority 1992, dated 1994):

Columns and labels:
[1] = test system: dopamine release; experiment: dopamine releasing properties (no method given)
[2] = target: T1, reuptake of dopamine in synaptosomes of rat forebrain (Rattus norvegicus, UniProt P23977); experiment: inhibition of reuptake of 3H-dopamine in synaptosomes of rat forebrain; format: biochemical
T1 construct: Fresh whole forebrain (at 0-4°C) from male Wistar rats (150-200 g) is homogenized; from tissue; host or cells: male Wistar rat whole forebrain, crude synaptosomal supernatant
T1 sequence (P23977 whole entry): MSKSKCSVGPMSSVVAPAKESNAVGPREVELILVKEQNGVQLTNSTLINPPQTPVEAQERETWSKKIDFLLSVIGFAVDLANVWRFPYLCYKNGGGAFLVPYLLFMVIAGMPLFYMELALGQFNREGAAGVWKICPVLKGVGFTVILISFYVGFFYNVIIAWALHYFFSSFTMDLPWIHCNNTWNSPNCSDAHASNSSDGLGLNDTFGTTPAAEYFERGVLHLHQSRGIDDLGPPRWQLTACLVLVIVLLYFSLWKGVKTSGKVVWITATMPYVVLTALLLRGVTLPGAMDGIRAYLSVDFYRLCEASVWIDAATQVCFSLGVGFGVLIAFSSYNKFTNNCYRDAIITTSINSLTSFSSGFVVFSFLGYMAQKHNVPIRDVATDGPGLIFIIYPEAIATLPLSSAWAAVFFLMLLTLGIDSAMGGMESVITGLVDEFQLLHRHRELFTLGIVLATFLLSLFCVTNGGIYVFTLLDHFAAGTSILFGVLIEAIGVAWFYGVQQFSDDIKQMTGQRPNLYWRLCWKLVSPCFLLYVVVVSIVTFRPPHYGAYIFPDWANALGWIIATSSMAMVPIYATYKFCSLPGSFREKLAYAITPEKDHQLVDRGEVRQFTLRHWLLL
Description: Fresh whole forebrain (at 0-4°C) from male Wistar rats (150-200 g) is homogenized in a glass homogenizer with a teflon pestle in 20 x volumes 0.32M sucrose. The homogenate is centrifuged at 1000 x g (∼ 2900 rpm) for 10 min. The pellet is discarded and the supernatant is used for uptake assays.
A Krebs Buffer (119 mM NaCI, 24 mM NaHCO3, 2.1 mM KCI, 1.2 mM KH2PO4, 1.8 mM CaCl2, 2 mM MgSO4, 7H2O, 12 mM glucose) is equilibrated with an atmosphere of 96% O2: 4% CO2 for at least 60 min at 37°C. To 5 ml Krebs-buffer 100 µl of the radioactivity is added (3H-dopamine 1 x 10^-9M final concentration) and 100 µl test substance solution and 200 µl of tissue suspension. The samples are thoroughly mixed and incubated 10 min at 37°C followed by 2 min at 0°C. After incubation the samples are poured directly onto Whatman GF/C glass fibre filters under suction and immediately washed with 2 x 5 ml ice-cold 0.9% saline (NaCI) buffer. To the filter is added 3 ml of scintillation fluid, and the amount of radioactivity on the filters is determined by conventional liquid scintillation counting.

[3] = test system: haloperidol-induced catalepsy; experiment: catalepsy test for antiparkinsonian effects (antagonism of haloperidol-induced catalepsy); format: in vivo; details: rat, given perorally 1 h before haloperidol 0.25 mg/kg s.c.; read-out: Minimum effective dose (peroral administration)
Description: The day before testing, the rats weighing 200-250 g are housed 2 and 2 together in standard macrolon cages. […] The testing for the immobile catalepsy syndrome includes 4 tests performed in the following consecutive order: • 1) a vertical wire netting (40x40 cm high).The meshes (openings) of the nettings are approximately 1x2cm. • 2) a horizontal bar 9 cm above the floor • 3) a 9 cm high block (bar) • 4) a 3 cm high block (cork)
The rats were scored for the immobile cataleptic syndrome every 15 min in all 4 tests starting 15 min after the haloperidol injection. The intensity of catalepsy was tested during 10 sec in all tests and evaluated according to a criteria of 10 sec of total immobility for a score of 2.
The rat was placed in the middle of the vertical wire netting, then on the horizontal bar in an extended position with support by both the forelegs on the bar. The rats were then tested, whether or not they were willing to sit with the left or right forelegs placed first on the 9 and then on the 3 cm block for a duration of 10 sec. The maximum score for all 4 tests is thus a total of 8.

[4] = test system: rearing and locomotor activities; experiment: behavioural excitatory locomotor and rearing responses (gross behaviour rating); format: in vivo; details: rat, 50 mg/kg i.p., maximum peak effect, observed 5-6 hrs
Description: Male SPF wistar rats weighing 200-250g were used for the gross behavioural studies. All rats were transferred the day before the experiments to individual cages made of wire netting (floor area 21 x 27 cm, height 16 cm) at a room temperature of 21-23° C. […] The behavioural elements here classified as rearing (i.e. standing up on the hindlegs) and locomotor activities (i.e. forward running activities) were registered, and the maximum peak effects were classified according to the following rating scale: • 0 = non-existent or very infrequent • + = weak and infrequent • ++ = moderate in intensity and frequency • +++ = very strong, continuous and intense
The degree of locomotor activity was also tested and measured quantitatively in photocell activity cages. For the measurement of this locomotor activity 100 g female rats are used.

[5] = test system: abnormal stereotyped behaviour; experiment: abnormal stereotyped behaviour (high intensity stereotypy rating); format: in vivo; details: rat, 50 mg/kg i.p.
Description: Backward locomotion may occasionally be observed.

In the case of `COC(=O)[C@@H]1[C@@H](c2ccc(F)cc2)C[C@@H]2CC[C@H]1N2C` [trans isomer of Win 35,428], the dopamine releasing properties [1] is reported as “essentially free of dopamine releasing properties”.
For `CN1[C@H]2CC[C@@H]1[C@H](COc1ccc(Cl)cc1)[C@@H](c1ccc(F)cc1)C2.Cl` [(1R,2R,3S)-2-(4-Chlorophenoxy-methyl)-3-(4-fluorophenyl)tropane, hydrochloride], the IC50 [2] was 390 nM, the minimal effective dose [3] was < 1 mg/kg and the “Activity (excitatory locomotor and rearing responses)” value [4] was 0. The “Activity (abnormal stereotyped behaviour, high intensity stereotypy)” value [5] was 0.
